Patent US20080154102A1, “Intraoperative imaging methods” (priority 2006, published 2008)
“Also recorded” adds a separate entry of the source. One block for each compound: values may come before it.

Tests used:
[1] = Absorbance spectrometry; type: physicochemical; conditions: for Peak Absorbance in PBS: Table 2
Procedure: (§1) Absorbance spectrometry was performed with a 1-cm path length quartz cuvette in a USB2000 fiber-optic spectrometer (Ocean Optics, Dunedin, Fla.). Fluorescence spectrometry was performed with a 1-cm path length, 1.5 mL disposable methacrylate cuvette (Fisher Scientific, Hampton, N.H.) in a HR2000 fiber-optic spectrometer, and CUV-ALL-UV four-way cuvette holder (Ocean Optics), using a 655 nm laser diode light source (OPCOM O.E. Inc., Xiamen, China) with maximum output less than 5 mW. Data acquisition was performed with a computer using an OOI-Base32 spectrometer operating software package (Ocean Optics). The spectral range of the USB2000-FL spectrometer was from 350 to 1000 nm with spectral resolution of 7.6 nm, and that of the HR2000 spectrometer was from 200 to 1100 nm with a spectral resolution of 6.7 nm.

[2] = Fluorescence spectrometry and fluorescence quantum yield; type: physicochemical; conditions: for Peak Fluorescence in PBS / Quantum Yield in PBS: Table 2
Procedure: as §1
Fluorescence intensity was measured in each solvent (PBS, FBS, and methanol) at each concentration of the dye to determine the effect of the methylene blue concentration and solvents on total fluorescence yield. Fluorescence quantum yields of methylene blue in PBS, FBS, and methanol were calculated using oxazine725 in ethylene glycol (quantum yield: 19%) as a calibration standard, under the conditions of matched absorbance of methylene blue in each solvent.

[3] = Excretion to bile / clearance after injection; type: in vivo
[4] = tested on: common bile duct; experiment: Cholangiographic imaging with ICG, IR-786 and CW800-CA in rats; type: in vivo
Procedure: 50 μL of 100 μM IR-786 or CW800-CA (15 μg/kg), or 1 mM ICG (150 μg/kg), was injected into portal vein in anesthetized rats. A simultaneous color video/NIR fluorescence intraoperative imaging system was employed for quantification of NIR fluorescence images. In another 32 rats, bile duct was visualized by intravenous (N=16) or portal vein injection (N=16) of 50 μL of CW800-CA at 10, 20, 50 and 100 μM to quantify the best concentration for bile duct imaging. Fluorescence intensities of bile duct, liver (right lobe), and pancreas were measured at 3, 5, 10, 20, and 30 min following injection.

[5] = tested on: common bile duct; experiment: Cholangiographic imaging with CW800-CA in pigs; type: in vivo; conditions: for detection of beads inserted into CBD: 5 mL of 50 μM intravenously, beads 2.5 and 3.5 mm
Procedure: Based on the results obtained in rats, CW800-CA was chosen as the contrast agent for a large animal model approaching the size of human. In 7 anesthetized pigs, 5 mL of 100 μM CW800-CA (15 μg/kg total) was injected into portal vein (N=3), or 5 mL of 50 μM (N=2) or 100 μM (N=2) of CW800-CA (7.5, and 15 μg/kg total, respectively) were injected intravenously.
Beads of 2.5 or 3.5 mm in diameter were inserted into common bile duct via papilla vateri by duodenostomy (N=2) to simulate blockage of the CBD.

[6] = tested on: thoracic duct; experiment: Thoracic duct visualization in the rat model; type: in vivo; conditions: 50 μL of 10 μM into mesenteric lymph node, 5 minutes
Procedure: Additional experiments on thoracic duct visualization in the rat model were also performed using other NIR fluorescent agents.

[7] = tested on: ureters; experiment: Ureteral mapping in rats; type: in vivo
Procedure: In rats, ureters were visualized by intravenous injection of 50 μL of CW800 CA at 10, 20, 50 and 100 μM to quantify the best concentration for […]. Fluorescence intensities of ureters, kidney, and abdominal wall were measured at 3, 5, 10, 20, and 30 min following injection.

[8] = Metabolism of CW800-CA, HPLC/mass spectrometry of urine samples; type: in vivo, pigs
Description: As described herein, ureter visualization can usually be obtained rapidly, even in a few minutes following injection. […] To clarify the point, an HPLC/mass spectrometry (using electrospray/time-of-flight (ES-TOF) method has been made.
Urine samples were collected from pigs (N=5), and analyzed. The dye usually can be pinpointed with a fluorescence detector equipped with ES-TOF mass spectrometry. Urine samples were first passed over a 6,000 Da cutoff gel-filtration column to remove contaminating proteins, and eluate less than 6,000 Da was analyzed on a C18 column. Buffer A was water, BioPlus (American Bioanalytical, Natick, Mass.) and Buffer B was acetonitrile. Using a gradient of 0 to 50% Buffer B over 30 min, urine samples were resolved on a 4.6×150 mm Symmetry C18 column (Waters) at a flow rate of 1 ml per minute with eluate fed into a Waters LCT ES-TOF mass spectrometer. Ion mode was set to electrospray negative (ES−), and cone and capillary voltages were set at 30 and 3000 (V), respectively. Desolvation and source temperature were set at 350, 140 (° C.), respectively. Data were analyzed with Masslynx (Waters) software.

[9] = cited from earlier work
[10] = Fluorescence spectrometry and fluorescence quantum yield; type: physicochemical
[11] = tested on: perforating arteries and veins; experiment: NIR imaging of skin perforating vessels for flap surgery; type: in vivo, Yorkshire pig; conditions: 35 kg pig, 0.5 mg (14 μg/kg) intravenously
Procedure: To evaluate the usefulness of NIR agents for such methods, 0.5 mg (14 μg/kg) indocyanine green (ICG) was injected intravenously into a 35 kg Yorkshire pig, and the skin was imaged as described herein.

[12] = tested on: common bile duct, vasculature, coronary artery, myocardium; experiment: Multi-wavelength fluorescence imaging with MB and ICG; type: in vivo, pigs; conditions: pig
Procedure: Therefore, MB was used to visualize CBD in an anesthetized pig, while ICG was used to visualize vasculature.
To evaluate the possibility of multi-wavelength fluorescent imaging, ICG and methylene blue were used.
1 mg/kg methylene blue IV injection was followed 30 min after by 0.03 mg/kg ICG IV injection. […] NIR camera exposure time was 100 msec.
Next, one of the diagonal branches of the coronary artery (D2) was clamped (white arrow), and then 1 mg/kg of methylene blue was injected intravenously; see the second row of images. Just after releasing the clamp, 0.03 mg/kg ICG was injected intravenously. […] The right-most image in the second row was created by merging the image of the coronary arteriography using methylene blue at clamping D2 and the image using ICG after declamping D2.

[13] = rats, portal vein injection, listed as CW800CA

- Peak Absorbance in PBS ([1]; in PBS): 775 nm
- Peak Fluorescence in PBS ([2]; in PBS): 796 nm
- Quantum Yield in PBS ([2]; in PBS): 9%
- emission of CW800-CA [10]: ≈ 800 nm
Structure (SMILES): CC1(C)C(/C=C/C2=C(Oc3ccc(S(=O)(=O)O)cc3)C(=C/C=C3/N(CCCCS(=O)(=O)O)c4ccc(S(=O)(=O)[O-])cc4C3(C)C)/CCC2)=[N+](CCCCCC(=O)O)c2ccc(S(=O)(=O)O)cc21 [CW800-CA]
- clearance after intravenous injection [3]: rapidly cleared by: 1) the liver and excreted into bile and 2) the kidneys and excreted into urine
- selectivity among three contrast agents for bile duct imaging ([4]; compared with ICG and IR-786): most selective
- dose required for CBD detection, portal vein injection ([4]; portal vein injection): 3 to 15 µg/kg
- injected concentration showing the best SBR (CBD) ([4]; rats, 50 μL (7.5 μg/kg)): 50 µM
- time of peak performance for CBD visualization ([4]; rats, every concentration): approximately 10 minutes
- time at which CBD could be identified ([4]; rats, intravenous or portal injection): 3 min
- dye stacking to the liver ([4]; rats, portal vein injection): no significant dye stacking to the liver
- signal to background ratio (SBR) of CBD, in words ([4]; rats, portal vein injection): excellent signal to background ratio
- dye stacking to the liver [4, 13]: no dye stacking in the liver
- signal to background ratio (SBR) of CBD, in words [4, 13]: higher SBR than the other two
- dose required for CBD detection, systemic intravenous injection ([4]; systemic intravenous injection): 7.5 to 15 µg/kg
- detection of beads inserted into CBD [5]: detected completely in 2 of 2 pigs
- detection of beads inserted into CBD ([5]; listed as CW800CA): All beads could be detected perfectly in each trial
- time until visualization of the CBD after dye injection ([5]; portal vein or intravenous injection): 7 to 10 min
- thoracic duct in the fluorescence image [6]: clearly visualized in the fluorescence image
- visualization of ureters, in words ([7]; rat): excellent visualization of ureters
- injected concentration showing the best SBR (ureter) ([7]; rats, 50 μL (7.5 μg/kg)): 50 µM
- time of peak performance for ureter visualization ([7]; rats, every concentration): approximately 10 minutes
- time at which ureters could be identified ([7]; rats, intravenous injection): 3 min
- form in which the dye is excreted ([8]; HPLC/ES-TOF mass spectrometry): excreted into the bile in a substantially unmetabolized form; also recorded: excreted into bile as an unmetabolized form
- fluorescence chromatograph after excretion into urine ([8]; HPLC/mass spectrometry): essentially a single peak with the expected mass spectrum
- concentration above which significant quenching of fluorescence occurs ([9]; Ohnishi et al.): above 10 μM

- Excitation Wavelength Maximum, (FBS) ([1]; in FBS): 800 nm
- Molar Extinction Coefficient, (FBS) ([1]; in FBS): 168,000 M^−1cm^−1
- molar extinction coefficient in FBS ([1]; in FBS, in M-1cm-1 (unit assumed)): 168,000
- Excitation Wavelength Maximum, PBS ([1]; in PBS): 779 nm
- Peak Absorbance in PBS ([1]; in PBS): 779 nm
- Emission Wavelength Maximum, (FBS) ([2]; in FBS): 811 nm
- Fluorescence Quantum Yield, (FBS) ([2]; in FBS): 9%
- ICG fluorescence relative to methylene blue fluorescence ([2]; in FBS, from extinction coefficient and quantum yield): about 8 times
- Emission Wavelength Maximum, PBS ([2]; in PBS): 806 nm
- Fluorescence Quantum Yield, PBS ([2]; in PBS): 1%
- Peak Fluorescence in PBS ([2]; in PBS): 806 nm
- Quantum Yield in PBS ([2]; in PBS): 1%
Structure (SMILES): CC1(C)C(/C=C/C=C/C=C/C=C2\N(CCCCS(=O)(=O)O)c3ccc4ccccc4c3C2(C)C)=[N+](CCCCS(=O)(=O)[O-])c2ccc3ccccc3c21 [ICG, indocyanine green]
- clearance after intravenous injection [3]: rapidly cleared from the blood by the liver, but is only inefficiently transported into bile
- dye stacking to the liver ([4]; rats, portal vein injection): significant dye stacking to the liver
- thoracic duct in the fluorescence image [6]: clearly visualized in the fluorescence image
- identification of perforating arteries and veins [11]: can be identified
- distribution in myocardium after arteriography [12]: evenly distributed over the entire myocardium
- detection of diagonal branch D2 after releasing the clamp ([12]; 0.03 mg/kg intravenously): detected clearly
- structure shown in two-channel NIR imaging ([12]; ICG 800 nm, MB 700 nm): highlights blood vessels

- Peak Absorbance in PBS ([1]; in PBS): 768 nm
- Peak Fluorescence in PBS ([2]; in PBS): 803 nm
- Quantum Yield in PBS ([2]; in PBS): 3.3%
Structure (SMILES): CN1C(=CC=C2CCCC(C=CC3=[N+](C)c4ccccc4C3(C)C)=C2Cl)C(C)(C)c2ccccc21.[O-][Cl+3]([O-])([O-])[O-] [IR-786]
- clearance after intravenous injection [3]: rapidly extracted into many tissues in the body, especially the liver, and is inefficiently transported into bile
- dye stacking to the liver ([4]; rats, portal vein injection): significant dye stacking to the liver

Structure (SMILES): CCN(CC)c1ccc2nc3ccc(=[N+](CC)CC)cc-3oc2c1.[O-][Cl+3]([O-])([O-])[O-] [oxazine725]
- quantum yield of calibration standard ([9]; in ethylene glycol): 19%
